Converted amounts (≈) assume the structure as drawn. Ends that are not written are not given here. Peptide text beside a SMILES is read from it. * marks the point of attachment. X4 = COCCOCCOCCOCCOCCOCCOCCOCCOCCOCCOCCOCCOCCOCCOCCOCCOCCOCCOCCOCCOCCOCCOCCOCCOCCOCCOCCOCCOCCOCCOCCOCCOCCOCCOCCOCCOCCOCCOCCOCCOCCOCCOCCOCCOCCOCCOCCOCCNC(=O)CCN1C(=O)CC(*)C1=O; X3 = COCCOCCOCCOCCOCCOCCOCCOCCOCCOCCOCCOCCOCCOCCOCCOCCOCCOCCOCCOCCOCCOCCOCCOCCOCCOCCOCCOCCOCCOCCOCCOCCOCCOCCOCCOCCNC(=O)CCN1C(=O)CC(*)C1=O; X2 = COCCOCCOCCOCCOCCOCCOCCOCCOCCOCCOCCOCCOCCOCCOCCOCCOCCOCCOCCOCCOCCOCCOCCOCCNC(=O)CCN1C(=O)CC(*)C1=O; X1 = COCCOCCOCCOCCOCCOCCOCCOCCOCCOCCOCCOCCNC(=O)CCN1C(=O)CC(*)C1=O
What was measured:
pUC19 plasmid DNA = test: Plasmid DNA cleavage by reactive oxygen species; assay type: biochemical; conditions: 10 μM base pair pUC19, 100 nM M-chelate, 1 mM H2O2, 1 mM ascorbate, pH 7.4
[1] = tested on: E. coli O157:H7, BAA-1883 (Ec F); conditions: O157:H7
[2] = tested on: K. pneumonia, 700603 (Kp); assay type: cell-based; conditions: Mueller Hinton Broth
E. coli, 25922 (Ec) = conditions: 25922 (Ec)
[3] = tested on: A. baumanii, BAA-747 (Ab); conditions: BAA-747
[4] = tested on: S. pneumoniae, 49619 (Sp); conditions: 49619 (Sp)
[5] = Cytotoxicity toward human Huh7 liver cells
[6] = tested on: Gram+ & Gram−, Fungi, Virus, Parasites, Protozoan, HIV, Cancer cells; conditions: Antimicrobial Peptide Database; cited from earlier work

O=C([O-])CN1CCN(CC(=O)O)CCN(CC(=O)[O-])CCN(CC(=O)O)CC1.[Cu+2] [Cu-DOTA]
Linear (μM bp) (pUC19 plasmid DNA): 0.09 μM bp | Nicked (μM bp) (pUC19 plasmid DNA): 1.31 μM bp | Supercoiled (μM bp) (pUC19 plasmid DNA): 8.59 μM bp

O=C([O-])CN(CCN(CC(=O)[O-])CC(=O)[O-])CC(=O)[O-].[Fe+3] [Fe-EDTA]
Linear (μM bp) (pUC19 plasmid DNA): 0.30 μM bp | Nicked (μM bp) (pUC19 plasmid DNA): 2.44 μM bp | Supercoiled (μM bp) (pUC19 plasmid DNA): 7.26 μM bp

NCC(=O)NCC(=O)N[C@@H](Cc1c[nH]cn1)C(=O)N1CCN(c2cc3c(cc2F)c(=O)c(C(=O)O)cn3C2CC2)CC1 [GGH CIPRO]
MIC Ec F [1]: 8 µM (≈ 4.66 µg/mL)

CC(C)C[C@H](NC(=O)[C@H](CCCNC(=N)N)NC(=O)[C@H](CCC(N)=O)NC(=O)[C@H](CCCCN)NC(=O)[C@@H](NC(=O)[C@H](CCCCN)NC(=O)[C@H](CCCNC(=N)N)NC(=O)[C@H](CC(C)C)NC(=O)[C@H](CC(N)=O)NC(=O)[C@H](Cc1ccccc1)NC(=O)[C@H](Cc1ccccc1)NC(=O)[C@H](CC(C)C)NC(=O)[C@H](CCCCN)NC(=O)[C@H](CCCNC(=N)N)NC(=O)[C@H](CCC(N)=O)NC(=O)CNC(=O)[C@H](Cc1c[nH]cn1)NC(=O)CNC(=O)CN)[C@@H](C)O)C(=O)NCC(=O)N[C@@H](Cc1c[nH]c2ccccc12)C(=O)N[C@@H](Cc1ccccc1)C(=O)N[C@@H](CC(N)=O)C(=O)N[C@@H](CCC(N)=O)C(=O)N[C@@H](CS)C(=O)O [PEP 192]
MIC Kp [2]: 5.3 µM (≈ 16 µg/mL)

CC[C@H](C)[C@H](NC(=O)[C@H](CCCCN)NC(=O)[C@H](Cc1c[nH]c2ccccc12)NC(=O)[C@H](CCCNC(=N)N)NC(=O)[C@H](CCCNC(=N)N)NC(=O)[C@H](Cc1c[nH]cn1)NC(=O)CNC(=O)CN)C(=O)N[C@H](C(=O)N[C@H](C(=O)N[C@H](C(=O)N[C@@H](CCCNC(=N)N)C(=O)N[C@@H](Cc1c[nH]c2ccccc12)C(=O)N[C@@H](CCCNC(=N)N)C(=O)N[C@@H](CCCNC(=N)N)C(=O)NCC(=O)NCC(=O)N[C@@H](CSC1CC(=O)N(CCC(=O)NCCOCCOCCOCCOCCOCCOCCOCCOCCOCCOCCOCCOC)C1=O)C(=O)O)[C@@H](C)CC)C(C)C)C(C)C (some centres unmarked) [PEP 314 PEG 12] (H-GGHRRWKIVVIRWRRGGC(X1)-OH; C-terminus assumed)
MIC Ec (E. coli, 25922 (Ec)): 11 µM (≈ 31.9 µg/mL) | MIC Ec F [1]: 11 µM (≈ 31.9 µg/mL) | MIC Ab [3]: 2.7 µM (≈ 7.84 µg/mL) | MIC Sp [4]: 11 µM (≈ 31.9 µg/mL)

CC[C@H](C)[C@H](NC(=O)[C@H](CCCCN)NC(=O)[C@H](Cc1c[nH]c2ccccc12)NC(=O)[C@H](CCCNC(=N)N)NC(=O)[C@H](CCCNC(=N)N)NC(=O)[C@H](Cc1c[nH]cn1)NC(=O)CNC(=O)CN)C(=O)N[C@H](C(=O)N[C@H](C(=O)N[C@H](C(=O)N[C@@H](CCCNC(=N)N)C(=O)N[C@@H](Cc1c[nH]c2ccccc12)C(=O)N[C@@H](CCCNC(=N)N)C(=O)N[C@@H](CCCNC(=N)N)C(=O)NCC(=O)NCC(=O)N[C@@H](CSC1CC(=O)N(CCC(=O)NCCOCCOCCOCCOCCOCCOCCOCCOCCOCCOCCOCCOCCOCCOCCOCCOCCOCCOCCOCCOCCOCCOCCOCCOCCOCCOCCOCCOCCOCCOCCOCCOCCOCCOCCOCCOC)C1=O)C(=O)O)[C@@H](C)CC)C(C)C)C(C)C (some centres unmarked) [PEP 314 PEG 36] (H-GGHRRWKIVVIRWRRGGC(X3)-OH; C-terminus assumed)
MIC Sp [4]: 8.1 µM (≈ 32.1 µg/mL) | IC50 [5]: > 200 µM

CC[C@H](C)[C@H](NC(=O)[C@H](CCCCN)NC(=O)[C@H](Cc1c[nH]c2ccccc12)NC(=O)[C@H](CCCNC(=N)N)NC(=O)[C@H](CCCNC(=N)N)NC(=O)[C@H](Cc1c[nH]cn1)NC(=O)CNC(=O)CN)C(=O)N[C@H](C(=O)N[C@H](C(=O)N[C@H](C(=O)N[C@@H](CCCNC(=N)N)C(=O)N[C@@H](Cc1c[nH]c2ccccc12)C(=O)N[C@@H](CCCNC(=N)N)C(=O)N[C@@H](CCCNC(=N)N)C(=O)NCC(=O)NCC(=O)N[C@@H](CSC1CC(=O)N(CCC(=O)NCCOCCOCCOCCOCCOCCOCCOCCOCCOCCOCCOCCOCCOCCOCCOCCOCCOCCOCCOCCOCCOCCOCCOCCOCCOCCOCCOCCOCCOCCOCCOCCOCCOCCOCCOCCOCCOCCOCCOCCOCCOCCOCCOCCOCCOCCOCCOCCOC)C1=O)C(=O)O)[C@@H](C)CC)C(C)C)C(C)C (some centres unmarked) [PEP 314 PEG 48] (H-GGHRRWKIVVIRWRRGGC(X4)-OH; C-terminus assumed)
MIC Sp [4]: 7.1 µM (≈ 31.9 µg/mL) | IC50 [5]: > 200 µM

CC[C@H](C)[C@H](NC(=O)[C@H](Cc1c[nH]cn1)NC(=O)CNC(=O)CN)C(=O)N[C@@H](CCCNC(=N)N)C(=O)N[C@@H](CCCNC(=N)N)C(=O)N[C@H](C(=O)N[C@H](C(=O)N[C@@H](CCCNC(=N)N)C(=O)N[C@@H](CCCCN)C(=O)N[C@H](C(=O)N[C@H](C(=O)N[C@@H](Cc1c[nH]cn1)C(=O)N[C@H](C(=O)N[C@H](C(=O)N[C@@H](CCCCN)C(=O)N[C@@H](CCCCN)C(=O)NCC(=O)NCC(=O)N[C@@H](CSC1CC(=O)N(CCC(=O)NCCOCCOCCOCCOCCOCCOCCOCCOCCOCCOCCOCCOCCOCCOCCOCCOCCOCCOCCOCCOCCOCCOCCOCCOC)C1=O)C(=O)O)[C@@H](C)CC)[C@@H](C)CC)[C@@H](C)CC)[C@@H](C)CC)[C@@H](C)CC)[C@@H](C)CC (some centres unmarked) [PEP 318 PEG 24] (H-GGHIRRIIRKIIHIIKKGGC(X2)-OH; C-terminus assumed)
MIC Ec (E. coli, 25922 (Ec)): 9.1 µM (≈ 31.9 µg/mL) | MIC Ec F [1]: 18.2 µM (≈ 63.9 µg/mL) | MIC Ab [3]: 9.1 µM (≈ 31.9 µg/mL) | IC50 [5]: > 200 µM

CC[C@H](C)[C@H](NC(=O)[C@H](Cc1c[nH]cn1)NC(=O)CNC(=O)CN)C(=O)N[C@@H](CCCNC(=N)N)C(=O)N[C@@H](CCCNC(=N)N)C(=O)N[C@H](C(=O)N[C@H](C(=O)N[C@@H](CCCNC(=N)N)C(=O)N[C@@H](CCCCN)C(=O)N[C@H](C(=O)N[C@H](C(=O)N[C@@H](Cc1c[nH]cn1)C(=O)N[C@H](C(=O)N[C@H](C(=O)N[C@@H](CCCCN)C(=O)N[C@@H](CCCCN)C(=O)NCC(=O)NCC(=O)N[C@@H](CSC1CC(=O)N(CCC(=O)NCCOCCOCCOCCOCCOCCOCCOCCOCCOCCOCCOCCOCCOCCOCCOCCOCCOCCOCCOCCOCCOCCOCCOCCOCCOCCOCCOCCOCCOCCOCCOCCOCCOCCOCCOCCOC)C1=O)C(=O)O)[C@@H](C)CC)[C@@H](C)CC)[C@@H](C)CC)[C@@H](C)CC)[C@@H](C)CC)[C@@H](C)CC (some centres unmarked) [PEP 318 PEG 36] (H-GGHIRRIIRKIIHIIKKGGC(X3)-OH; C-terminus assumed)
MIC Ec (E. coli, 25922 (Ec)): 15.8 µM (≈ 63.8 µg/mL) | MIC Ec F [1]: 15.8 µM (≈ 63.8 µg/mL) | MIC Ab [3]: 7.9 µM (≈ 31.9 µg/mL) | IC50 [5]: > 200 µM

CC[C@H](C)[C@H](NC(=O)[C@H](Cc1c[nH]cn1)NC(=O)CNC(=O)CN)C(=O)N[C@@H](CCCNC(=N)N)C(=O)N[C@@H](CCCNC(=N)N)C(=O)N[C@H](C(=O)N[C@H](C(=O)N[C@@H](CCCNC(=N)N)C(=O)N[C@@H](CCCCN)C(=O)N[C@H](C(=O)N[C@H](C(=O)N[C@@H](Cc1c[nH]cn1)C(=O)N[C@H](C(=O)N[C@H](C(=O)N[C@@H](CCCCN)C(=O)N[C@@H](CCCCN)C(=O)NCC(=O)NCC(=O)N[C@@H](CSC1CC(=O)N(CCC(=O)NCCOCCOCCOCCOCCOCCOCCOCCOCCOCCOCCOCCOCCOCCOCCOCCOCCOCCOCCOCCOCCOCCOCCOCCOCCOCCOCCOCCOCCOCCOCCOCCOCCOCCOCCOCCOCCOCCOCCOCCOCCOCCOCCOCCOCCOCCOCCOCCOC)C1=O)C(=O)O)[C@@H](C)CC)[C@@H](C)CC)[C@@H](C)CC)[C@@H](C)CC)[C@@H](C)CC)[C@@H](C)CC (some centres unmarked) [PEP 318 PEG 48] (H-GGHIRRIIRKIIHIIKKGGC(X4)-OH; C-terminus assumed)
MIC Ab [3]: 13.9 µM (≈ 63.5 µg/mL) | IC50 [5]: > 200 µM

CC/C(=C(\c1ccccc1)c1ccc(OCCN(C)C)cc1)c1ccccc1 [Tamoxifen, reference compound]
IC50 [5]: 42 µM

Cu-GGHC-Amik fr3: copper complex of GGHC-Amikacin, fraction 3 (also: copper complex, amikacin conjugate, site not given here)
Linear (μM bp) (pUC19 plasmid DNA): 0.04 μM bp | Nicked (μM bp) (pUC19 plasmid DNA): 6.46 μM bp | Supercoiled (μM bp) (pUC19 plasmid DNA): 3.50 μM bp

FVQWFSKFLGRILGGC [SEQ ID NO: 63]
activity against organisms [6]: active against Gram+ & Gram−, Virus, Parasites, Protozoan

GGHGIRRIIRKIIHIIKK-NH2 (C-terminus assumed) [PEP 188, GGHGIRRIIRKIIHIIKK]
MIC Kp [2]: 1.9 µM

GGHGVRRFPWWWPFLRR [PEP 189, GGHGVRRFPWWWPFLRR]
MIC Kp [2]: 7.2 µM

GIGKFLHSAGKFGKAFVGEIMKS [SEQ ID NO: 57]
activity against organisms [6]: active against Gram+ & Gram−, Virus, Fungi, Parasites, Protozoan, HIV

GILAWKWAWWAWRR [SEQ ID NO: 55]
activity against organisms [6]: active against Gram+ & Gram−, Fungi, Virus, HIV

GILAWKWAWWAWRRGGC [SEQ ID NO: 61]
activity against organisms [6]: active against Gram+ & Gram−, Fungi, Virus, HIV

GIRRIIRKIIHIIKK [SEQ ID NO: 53]
activity against organisms [6]: active against Gram+ & Gram−, Fungi

GIRRIIRKIIHIIKKGGC [SEQ ID NO: 59]
activity against organisms [6]: active against Gram+ & Gram−, Fungi GVR

GRLARIVVIRVAR [SEQ ID NO: 56]
activity against organisms [6]: active against Gram+ & Gram−

GRRWKIVVIRWRRGGC [SEQ ID NO: 67]
activity against organisms [6]: active against Gram+ & Gram−

GVRRFPWWWPFLRR [SEQ ID NO: 54]
activity against organisms [6]: active against Gram+ & Gram−, Fungi

ILPWKWPWWPWRRGGC [SEQ ID NO: 64]
activity against organisms [6]: active against Gram+ & Gram−, Fungi, Virus, HIV

IRRIIRKIIHIIKKGGC [SEQ ID NO: 65]
activity against organisms [6]: active against Gram+ & Gram−, Fungi

RFPWWWPFLRRGGC [SEQ ID NO: 60]
activity against organisms [6]: active against Gram+ & Gram−, Fungi

RRWKIVVIRWRRGGC [SEQ ID NO: 62]
activity against organisms [6]: active against Gram+ & Gram−

VDKGSYLPRPTPPRPIYNRN [SEQ ID NO: 58]
activity against organisms [6]: active against Gram+ & Gram−

VRRFPWWWPFLRRGGC [SEQ ID NO: 66]
activity against organisms [6]: active against Gram+ & Gram−, Fungi

From US8933016B2, “Metallodrugs having improved pharmacological properties and methods of manufacture and use thereof” (priority 2012, dated 2015)
